What all share (assay): NCI anticancer screen, dose series, 48 h
For experiment [1], the system named is ACHN renal.
Experiment [2] deals with CAKI-1 renal.
Experiment [3] relates to HOP-92 NSCLC.
The subject of experiment [4] is KM12 colon.
For experiment [5], the system named is MOLT-4 leukemia.
The test system of experiment [6] is RXF 393 renal.
Experiment [7] relates to SK-OV-3 ovarian.
Experiment [8] deals with SNB-19 CNS.
Experiment [9] deals with SR leukemia.
Experiment [10] has as its system MALME-3M melanoma.

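Cultured in 96-well plates, cells were exposed to test compound for 48 hours across five concentrations. The concentration for 50% growth inhibition is given as GI50. TGI is the concentration that stops growth completely.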 Where only a bound is given, the exact number is not on record here.

The values below come from PubChem BioAssay (NCI).

Take `N=c1c2c(=N)n3c(nc2nc2n1-c1ccccc1Sc1ccccc1-2)sc1cc(Cl)ccc13`: the GI50 in [1] was 2.18 µM; in experiment [2], 1.94 µM; in experiment [3], 0.517 µM; in experiment [4] it was 2.34 µM; in [5] it was 2.33 µM; in experiment [6] it was 2.46 µM. Besides, the GI50 is 4.42 µM in [7], 2.88 µM in [8] and 2.77 µM in experiment [9]. Besides, the TGI in experiment [1] was > 100 µM; in experiment [2], > 100 µM; in [3] it was 4.15 µM; in experiment [4] it was 12.6 µM; in experiment [5] it was > 100 µM; in experiment [6] it was 9.52 µM. Moreover, the TGI in experiment [7] is 37 µM; in experiment [8] it was 68.7 µM; in [9], > 100 µM.
In the case of `C=CCc1cc(OC)c2c(c1)C(OC)CC(c1ccc(OC)c(OC)c1)O2` (configuration not stated), the TGI in [1], in experiment [2], in [4], in experiment [10], in experiment [5] and in experiment [7] was > 100 µM each time. Further, in experiment [8], the TGI is > 100 µM.
`O=C(CC(Cl)=C(Cl)Cl)c1cccc(Cl)c1Cl`: the GI50 in experiment [1] was 47.7 µM; in [3], 61 µM; in [4] it was > 100 µM; in [10], > 100 µM; in experiment [5], 24 µM; in [6], > 100 µM. For the same compound, the GI50 in experiment [7] and in experiment [8] was > 100 µM in each case. Also, the TGI in experiment [1], in experiment [3], in experiment [4], in experiment [10], in experiment [5] and in experiment [6] was > 100 µM throughout. Also, the TGI in experiment [7] and in experiment [8] was > 100 µM throughout.
For `COc1cc(CCc2ccc(N)cc2)cc(OC)c1OC`, the TGI in experiment [1] is > 100 µM; in experiment [2], > 100 µM; in experiment [3] it was > 100 µM; in experiment [4] it was > 100 µM; in experiment [10] it was > 80 µM; in experiment [5], > 100 µM. For the same compound, the results for the TGI in [6], in experiment [7] and in [8] were > 91.1 µM, > 100 µM and > 100 µM, respectively.
As for `CCOC(=O)C1(C)CCCCC(=O)N1` (configuration not stated), the TGI in experiment [1], in experiment [2], in experiment [3], in experiment [10], in experiment [6] and in experiment [7] was > 100 µM throughout. Moreover, in experiment [8], the TGI was > 100 µM.
Take `CC[C@H](C)[C@H](NC(=O)CN(C)C)C(=O)N(C)[C@H](C[C@@H](OC(C)=O)c1nc(C(=O)NC23CC(C(=O)OC)(C2)C3)cs1)C(C)C`: the GI50 in experiment [1] is 2.28 µM; in [2] it was 12.3 µM; in experiment [3], > 25 µM; in experiment [4], 0.478 µM; in [10], > 6.28 µM; in [5], 0.119 µM. For the same compound, the GI50 was 1.64 µM in experiment [7] and 0.852 µM in [8]. The TGI in [1], in experiment [2], in [3], in experiment [4], in experiment [10] and in experiment [5] was > 25 µM in each case. In addition, the TGI in [7] and in experiment [8] was > 25 µM each time.
Take `CC(=O)c1c(C)[nH]c(-c2nc3ccc(N4CCN(C)CC4)cc3[nH]2)c1-c1ccccc1`: the GI50 in experiment [1] is 0.876 µM; in [2], 0.212 µM; in experiment [3] it was 0.585 µM; in experiment [4], 1.84 µM; in experiment [10] it was 0.961 µM; in [5] it was 6.47 µM. Moreover, the GI50 in [6] was 2.84 µM; in experiment [7], 0.97 µM; in [8] it was 3.03 µM. Besides, the TGI in experiment [1] is 12.3 µM; in experiment [2], 12.8 µM; in experiment [3] it was 24.5 µM; in [4] it was 32.6 µM; in experiment [10] it was 12.7 µM; in experiment [5], > 100 µM. Further, the TGI is 16.1 µM in experiment [6], > 100 µM in [7] and > 100 µM in experiment [8].
For `Nc1c(Cl)ncnc1NCCCNc1ncnc(Cl)c1N`, the TGI in [1], in experiment [2], in experiment [3], in experiment [4], in experiment [5] and in experiment [6] was > 100 µM in each case. Also, the TGI in experiment [7], in experiment [8] and in experiment [9] was > 100 µM each time.
As for `COC(=O)C=Cc1ccc2nncnc2c1` (mixture of isomers), the TGI in experiment [1] is > 100 µM; in experiment [2], > 100 µM; in [4], 99 µM; in experiment [5] it was > 100 µM; in [7] it was > 100 µM; in experiment [8], > 100 µM. Besides, in experiment [9], the TGI is > 100 µM.
For the compound `CC(SC(=O)Nc1ccc(N=Nc2ccccc2)cc1)C(=O)O` (configuration not stated), the TGI in experiment [1], in experiment [2], in experiment [4], in experiment [5], in experiment [6] and in experiment [8] was > 100 µM each time. In experiment [9], the TGI was > 100 µM.
On to `c1cc2c(cn1)Nc1ccncc1S2`, for which the GI50 in experiment [1] was 26.8 µM; in [2], > 100 µM; in [3] it was 8.52 µM; in experiment [4], 32.3 µM; in experiment [10] it was > 100 µM; in experiment [5] it was 33.4 µM. Moreover, the GI50 in experiment [6] is 15.6 µM; in [7], 15.2 µM; in [8], 39 µM. Also, the TGI is > 100 µM in [1]; > 100 µM in [2]; 76.6 µM in experiment [3]; > 100 µM in experiment [4]; > 100 µM in experiment [10]; > 100 µM in [5]. Moreover, the TGI is 42.3 µM in [6], 80.6 µM in experiment [7] and > 100 µM in [8].
On to `CC(=O)NNc1nc(C)c(C(=O)NNC(=O)C(=O)Nc2ccc(Cl)cc2Cl)s1`, for which the TGI was 87.9 µM in [1]; 75.5 µM in [2]; 70.9 µM in [3]; > 100 µM in [4]; > 100 µM in experiment [10]; 57 µM in [5]. Besides, the TGI in [7] and in [8] was > 100 µM throughout.
In the case of `CN1c2ccccc2N(C(=O)c2ccccc2)C(CC(=O)O)c2cccn21` (configuration not stated), the TGI in [1], in [2], in [3], in [4], in [10] and in experiment [5] was > 100 µM in each case. Also, the TGI in experiment [6], in [7] and in experiment [8] was > 100 µM each time.
As for `Cc1ccc(S(=O)(=O)NC(CN)C(=O)O)cc1` (configuration not stated), the TGI in experiment [1], in experiment [2], in [3], in experiment [4], in [10] and in experiment [5] was > 100 µM each time. Further, the TGI in experiment [6], in experiment [7] and in experiment [8] was > 100 µM each time.
For the compound `CC(C)(C)C(C#N)(C#N)c1ccc(C(C#N)(C#N)C(C)(C)C)nn1`, the TGI in [1], in [2], in experiment [3], in [4], in [10] and in experiment [5] was > 100 µM each time. The TGI in experiment [6], in [7] and in experiment [8] was > 100 µM throughout.
For the compound `Cc1ccc(S(=O)(=O)N/N=C(/c2nc3ccc([N+](=O)[O-])cc3[nH]c2=O)C(O)c2ccc(C(O)/C(=N\NS(=O)(=O)c3ccc(C)cc3)c3nc4ccc([N+](=O)[O-])cc4[nH]c3=O)cc2)cc1` (configuration not stated), the TGI in [1], in experiment [3], in [4], in experiment [10], in [5] and in experiment [6] was > 100 µM in each case. Moreover, the TGI in experiment [7] and in experiment [8] was > 100 µM throughout.
In the case of `C[C@]12CCC3[C@@H](CC[C@@H]4c5nonc5CC[C@]34C)C1CC[C@@H]2O` (some centres not stated), the TGI in experiment [1] is 66.3 µM; in [2], 52.6 µM; in experiment [3], 57.7 µM; in experiment [4], > 100 µM; in experiment [10], 69.3 µM; in [5], 55.1 µM. Further, the results for the TGI in experiment [6], in [7] and in experiment [8] were 69.6 µM, 84.9 µM and > 100 µM, respectively.
As for `CC(=O)NC(CC(C)C)C(=O)NC(Cc1ccccc1)C(=S)N1CCCC1` (configuration not stated), the TGI in experiment [1], in experiment [2], in [3], in [4], in experiment [10] and in [5] was > 100 µM in each case. Further, the TGI in experiment [6], in experiment [7] and in experiment [8] was > 100 µM throughout.
Regarding `c1ccc2c3c([nH]c2c1)C(c1ccc(C2NCCc4c2[nH]c2ccccc42)cc1)NCC3` (configuration not stated), the GI50 in [1] is 0.713 µM; in experiment [2], 1.66 µM; in [3], 0.731 µM; in [4], 1.07 µM; in [10], 1.55 µM; in experiment [5] it was 0.378 µM. Besides, the GI50 in experiment [6] was 1.31 µM; in [7], 1.88 µM; in experiment [8], 1.73 µM. In addition, the TGI in [1] worked out at 2 µM; in experiment [2], 4.03 µM; in experiment [3], 2.89 µM; in [4], 2.36 µM; in experiment [10], 3.11 µM; in experiment [5], 1.53 µM. In addition, the TGI in experiment [6] was found to be 2.67 µM; in experiment [7], 4.14 µM; in experiment [8], 3.54 µM.
Regarding `CC(=O)OC1COC(n2c(=S)n(-c3ccccc3)c(=O)c3ccccc32)C(OC(C)=O)C1OC(C)=O` (configuration not stated), the TGI in [1], in [2], in experiment [3], in experiment [4], in [10] and in [5] was > 100 µM throughout. Moreover, the TGI in experiment [6], in experiment [7] and in experiment [8] was > 100 µM in each case.
On to `CC1=C(C(=O)Nc2ccc(Cl)c(C(=O)OC(C)C)c2)SCCO1`, for which the TGI was > 100 µM in experiment [1]; > 100 µM in experiment [2]; > 100 µM in experiment [3]; > 100 µM in [4]; 92.2 µM in experiment [10]; 84.4 µM in experiment [5]. The TGI in [6] is > 97.7 µM; in experiment [7], > 81.1 µM; in experiment [8] it was > 77.4 µM.
With `CC1=C(C(=O)Nc2cc(F)c(F)cc2F)C(c2ccc([N+](=O)[O-])cc2)C(C(=O)Nc2cc(F)c(F)cc2F)=C(C)N1`, the TGI in [1] was > 100 µM; in [2], > 100 µM; in [3], 42.2 µM; in experiment [4], > 100 µM; in [10] it was > 100 µM; in experiment [5] it was > 100 µM. For the same compound, the TGI was 63.2 µM in [6], > 100 µM in experiment [7] and > 100 µM in experiment [8].
On to `CN(CCCNC(=O)CCOCCOCCOCCNC(=O)Cc1ccc2ccc3cccc4ccc1c2c34)CCCNc1cc(-c2ccc3ccccc3c2)nc2ccccc12`, for which the GI50 in experiment [1] was 0.823 µM; in experiment [2] it was 1.06 µM; in experiment [3], 0.38 µM; in experiment [4], 0.47 µM; in experiment [6], 0.507 µM; in [7] it was 0.634 µM. For the same compound, the GI50 in experiment [8] is 0.51 µM. For the same compound, the TGI turned out to be 2.2 µM in experiment [1]; 3.34 µM in experiment [2]; 2.22 µM in experiment [3]; 1.04 µM in experiment [4]; 0.963 µM in experiment [6]; 1.2 µM in [7]. The compound further displayed a TGI in experiment [8] of 0.991 µM.
